Values joined by “and” are separate entries in the source; they are usually repeats but may differ in a detail not shown here. Identical values can stand only once. Active and inactive are the calls of the source. The calls are words filed in the database; no cut-off is given here.
How the values were obtained:
D(3) dopamine receptor [1] = biological target: T1, D(3) dopamine receptor (Homo sapiens, UniProt P35462); assay: biochemical; type: cell-based, CHO
D(2) dopamine receptor [2] = biological target: T2, D(2) dopamine receptor (Homo sapiens, UniProt P14416); assay: biochemical; type: cell-based, CHO
D(4) dopamine receptor = biological target: T3, D(4) dopamine receptor (Homo sapiens, UniProt P21917); assay: biochemical; type: cell-based, CHO
T3 sequence (P21917 whole entry): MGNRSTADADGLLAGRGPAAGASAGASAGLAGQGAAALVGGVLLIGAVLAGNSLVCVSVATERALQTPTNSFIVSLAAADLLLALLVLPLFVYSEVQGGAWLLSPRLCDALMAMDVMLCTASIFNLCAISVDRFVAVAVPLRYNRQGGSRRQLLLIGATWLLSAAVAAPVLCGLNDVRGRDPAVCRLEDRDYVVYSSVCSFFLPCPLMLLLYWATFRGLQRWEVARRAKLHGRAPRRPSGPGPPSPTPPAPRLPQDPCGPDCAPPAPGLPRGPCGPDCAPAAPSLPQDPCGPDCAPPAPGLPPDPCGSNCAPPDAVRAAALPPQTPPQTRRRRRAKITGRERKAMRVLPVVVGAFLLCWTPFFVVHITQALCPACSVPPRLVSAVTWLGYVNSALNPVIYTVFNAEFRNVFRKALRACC

D(2) dopamine receptor [3] = biological target: T2, D(2) dopamine receptor
D(2) dopamine receptor [4] = biological target: T2, D(2) dopamine receptor; assay: biochemical; type: cell-based, CHO; remark: listed apart in the source
D(3) dopamine receptor [5] = biological target: T1, D(3) dopamine receptor; type: functional, cell-based, HEK293
[6] = biological target: 5-hydroxytryptamine receptor 2A (Homo sapiens, UniProt P28223); assay: biochemical; type: cell-based, HEK293
D(1A) dopamine receptor = D(1A) dopamine receptor (Homo sapiens, UniProt P21728); assay: biochemical; type: cell-based, HEK293
D(2) dopamine receptor [7] = biological target: T2, D(2) dopamine receptor; remark: listed apart in the source
Mus musculus = assay: CNS activity in C57Bl/6J mouse assessed as auditory startle response at 3 mg/kg, ip measured after 15 mins; type: functional, organism-based; parameters: dose 3 mg/kg

Sequence of D(1A) dopamine receptor (P21728 whole entry): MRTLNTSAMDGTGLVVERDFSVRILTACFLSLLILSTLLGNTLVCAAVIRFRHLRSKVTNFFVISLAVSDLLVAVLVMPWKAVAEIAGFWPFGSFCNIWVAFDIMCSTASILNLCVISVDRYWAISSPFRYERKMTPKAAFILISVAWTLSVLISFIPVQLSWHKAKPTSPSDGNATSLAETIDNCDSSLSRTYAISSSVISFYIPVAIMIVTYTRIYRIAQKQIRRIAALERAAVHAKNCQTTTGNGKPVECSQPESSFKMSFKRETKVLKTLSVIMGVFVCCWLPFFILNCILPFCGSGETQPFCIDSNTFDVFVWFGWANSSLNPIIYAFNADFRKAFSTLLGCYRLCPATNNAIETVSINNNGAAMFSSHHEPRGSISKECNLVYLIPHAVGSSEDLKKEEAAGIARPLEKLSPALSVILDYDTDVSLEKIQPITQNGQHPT
T2 sequence (P14416 whole entry): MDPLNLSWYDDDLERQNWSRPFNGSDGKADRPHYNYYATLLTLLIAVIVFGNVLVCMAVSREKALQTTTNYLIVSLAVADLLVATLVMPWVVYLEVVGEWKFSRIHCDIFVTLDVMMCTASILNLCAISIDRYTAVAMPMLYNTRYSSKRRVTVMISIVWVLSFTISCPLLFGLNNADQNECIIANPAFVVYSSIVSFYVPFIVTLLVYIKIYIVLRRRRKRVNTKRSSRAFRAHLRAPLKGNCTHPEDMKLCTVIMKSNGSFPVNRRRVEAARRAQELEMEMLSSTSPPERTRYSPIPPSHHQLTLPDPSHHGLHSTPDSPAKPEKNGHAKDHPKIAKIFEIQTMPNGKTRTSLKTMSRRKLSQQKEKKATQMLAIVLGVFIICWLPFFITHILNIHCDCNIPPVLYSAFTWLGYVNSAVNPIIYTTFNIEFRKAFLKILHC
T1 sequence (P35462 whole entry): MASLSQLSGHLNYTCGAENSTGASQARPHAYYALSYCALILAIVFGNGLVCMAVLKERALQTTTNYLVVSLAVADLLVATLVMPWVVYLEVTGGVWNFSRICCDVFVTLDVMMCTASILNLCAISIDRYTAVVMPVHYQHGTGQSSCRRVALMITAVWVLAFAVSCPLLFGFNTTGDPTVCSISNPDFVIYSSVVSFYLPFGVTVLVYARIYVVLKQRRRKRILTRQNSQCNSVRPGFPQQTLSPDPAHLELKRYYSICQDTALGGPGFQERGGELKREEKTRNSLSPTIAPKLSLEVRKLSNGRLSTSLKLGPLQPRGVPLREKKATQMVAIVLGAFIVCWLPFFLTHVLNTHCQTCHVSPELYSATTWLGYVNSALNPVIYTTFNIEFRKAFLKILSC
Sequence of 5-hydroxytryptamine receptor 2A (P28223 whole entry): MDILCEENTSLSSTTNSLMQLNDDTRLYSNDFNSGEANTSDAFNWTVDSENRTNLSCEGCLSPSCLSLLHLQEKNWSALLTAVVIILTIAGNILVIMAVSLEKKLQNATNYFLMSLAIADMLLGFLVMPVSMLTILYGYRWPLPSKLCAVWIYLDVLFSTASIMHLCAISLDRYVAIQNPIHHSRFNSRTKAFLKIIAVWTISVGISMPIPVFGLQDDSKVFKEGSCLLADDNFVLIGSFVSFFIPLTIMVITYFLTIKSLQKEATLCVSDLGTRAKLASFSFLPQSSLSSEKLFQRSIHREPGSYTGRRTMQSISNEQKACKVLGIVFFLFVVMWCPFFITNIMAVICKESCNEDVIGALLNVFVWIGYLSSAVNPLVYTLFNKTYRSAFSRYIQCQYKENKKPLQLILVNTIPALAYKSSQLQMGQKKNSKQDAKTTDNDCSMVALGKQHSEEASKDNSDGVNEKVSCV

Structure (SMILES) | Ki (D(3) dopamine receptor [1]) | Ki (D(2) dopamine receptor [2]) | Ki (D(4) dopamine receptor) | EC50 (D(2) dopamine receptor [3]) | Ki (D(2) dopamine receptor [4]) | EC50 (D(3) dopamine receptor [5]) | Ki [6] | Ki (D(1A) dopamine receptor) | IC50 (D(2) dopamine receptor [7]) | Activity (Mus musculus)
Clc1cccc(N2CCN(CCCCOc3ccn4nccc4c3)CC2)c1Cl | 7 nM | 39 nM | 130 nM | 180 nM | 34 nM | 66 nM |  |  |  | 
CCOC(=O)c1cc2cc(OCCCCN3CCN(c4cccc(Cl)c4Cl)CC3)ccn2n1 | 2.1 nM | 6.7 nM | 47 nM | 440 nM | 7.4 nM | 57 nM | 22 nM | 150 nM |  | 
O=Cc1cnn2cccc(OCCCCN3CCN(c4cccc(Cl)c4Cl)CC3)c12 | 20 nM | 24 nM | 41 nM |  | 29 nM |  |  |  |  | 
O=Cc1cc2cc(OCCCCN3CCN(c4cccc(Cl)c4Cl)CC3)ccn2n1 | 6 nM | 14 nM | 89 nM |  | 14 nM | 5 nM | 56 nM | 180 nM | 28.8 nM and 22 nM | 
Clc1cccc(N2CCN(CCCCOc3ccc4ccnn4c3)CC2)c1Cl | 2.3 nM | 2.1 nM | 4.4 nM | 1300 nM | 4.2 nM | 41 nM |  |  |  | 
N#Cc1cnn2ccc(OCCCCN3CCN(c4cccc(Cl)c4Cl)CC3)cc12 | 1.5 nM | 0.32 nM | 5.7 nM | 110 nM | 0.58 nM | 12 nM | 490 nM | 930 nM |  | 
O=Cc1cnn2cc(OCCCCN3CCN(c4cccc(Cl)c4Cl)CC3)ccc12 | 2 nM | 8.1 nM | 18 nM | 340 nM | 6.2 nM | 110 nM |  |  |  | 
Clc1cccc(N2CCN(CCCCOc3cccn4nccc34)CC2)c1Cl | 10 nM | 30 nM | 16 nM |  | 25 nM |  |  |  |  | 

More lines, in order of falling Ki (D(3) dopamine receptor [1]), values ahead:

Ki (D(3) dopamine receptor [1]) | Ki (D(2) dopamine receptor [2]) | Ki (D(4) dopamine receptor) | EC50 (D(2) dopamine receptor [3]) | Ki (D(2) dopamine receptor [4]) | EC50 (D(3) dopamine receptor [5]) | Ki [6] | Ki (D(1A) dopamine receptor) | IC50 (D(2) dopamine receptor [7]) | Structure (SMILES) | Activity (Mus musculus)
7.2 nM | 16 nM | 16 nM |  | 64 nM |  |  |  |  | Clc1cccc(N2CCN(CCCCOc3cccc4ccnn34)CC2)c1Cl | 
6.9 nM | 3.2 nM | 57 nM | 650 nM | 4.6 nM | 1.9 nM | 240 nM | 970 nM | 360 nM | O=Cc1cnn2ccc(OCCCCN3CCN(c4cccc(Cl)c4Cl)CC3)cc12 | Active
6.4 nM | 15 nM | 78 nM |  | 51 nM |  |  |  |  | O=Cc1cnn2c(OCCCCN3CCN(c4cccc(Cl)c4Cl)CC3)cccc12 | 
5.9 nM | 14 nM | 29 nM |  | 10 nM |  |  |  |  | O=Cc1c(OCCCCN2CCN(c3cccc(Cl)c3Cl)CC2)nn2ccccc12 | 
2.3 nM | 1.7 nM | 5.3 nM | 270 nM | 1.8 nM | 42 nM | 7.7 nM | 4300 nM |  | O/N=C/c1cnn2ccc(OCCCCN3CCN(c4cccc(Cl)c4Cl)CC3)cc12 (stereo in doubt; 8a) | 
1.9 nM | 6.7 nM | 9.3 nM | 98 nM | 8.9 nM | 41 nM | 81 nM | 3500 nM |  | N#Cc1cc2cc(OCCCCN3CCN(c4cccc(Cl)c4Cl)CC3)ccn2n1 | 
1.3 nM | 2.3 nM | 35 nM | 540 nM | 3.1 nM | 5.9 nM | 16 nM | 240 nM |  | OCc1cc2cc(OCCCCN3CCN(c4cccc(Cl)c4Cl)CC3)ccn2n1 | 
0.86 nM | 2.3 nM | 24 nM |  | 3.3 nM | 15 nM | 7.9 nM | 260 nM |  | O/N=C/c1cc2cc(OCCCCN3CCN(c4cccc(Cl)c4Cl)CC3)ccn2n1 | 
0.69 nM | 0.25 nM | 6 nM | 240 nM | 0.17 nM | 39 nM | 4 nM | 670 nM | 3.8 nM | O/N=C/c1cnn2ccc(OCCCCN3CCN(c4cccc(Cl)c4Cl)CC3)cc12 (stereo in doubt; 8b) | 

Source: ChEMBL document CHEMBL3286313 (J Med Chem, 2014)
